In patent publication US20200131180A1, “POSITIVE ALLOSTERIC MODULATORS OF THE MUSCARINIC ACETYLCHOLINE RECEPTOR M1” (Vanderbilt University, priority 2018, published 2020) one finds EC50 and Emax data, which are given here for ten molecules.

This test concerns the target T1, human mAChR M1 (Homo sapiens, UniProt P11229).
T1 sequence (P11229 1-460): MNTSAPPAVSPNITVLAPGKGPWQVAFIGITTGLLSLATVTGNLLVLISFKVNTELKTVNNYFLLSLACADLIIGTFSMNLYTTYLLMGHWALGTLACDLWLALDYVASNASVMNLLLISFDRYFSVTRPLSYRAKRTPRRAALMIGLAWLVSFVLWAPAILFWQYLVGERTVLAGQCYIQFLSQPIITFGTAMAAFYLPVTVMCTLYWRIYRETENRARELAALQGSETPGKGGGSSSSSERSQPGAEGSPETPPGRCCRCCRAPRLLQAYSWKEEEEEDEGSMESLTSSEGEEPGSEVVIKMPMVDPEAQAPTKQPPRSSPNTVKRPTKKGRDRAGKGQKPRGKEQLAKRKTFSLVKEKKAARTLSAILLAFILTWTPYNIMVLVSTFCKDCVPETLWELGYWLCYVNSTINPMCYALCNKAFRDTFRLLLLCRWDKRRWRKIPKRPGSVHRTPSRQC
Put plainly: mAChR M1 cell-based functional assay (calcium mobilization, PAM activity). As to conditions: CHO-K1 cells expressing hM1, calcium flux (Fluo-4); for EC50: concentration-dependent increase in the EC20 acetylcholine response; for Emax: potentiation of EC20 acetylcholine response. From the text: Chinese hamster ovary (CHO-K1) cells stably expressing rat (r)M1 were purchased from the American Type Culture Collection and cultured according to their indicated protocol. CHO cells stably expressing human (h)M2, hM3, and hM5 were described previously (Levey, et al., 1991); hM1 and hM4 cDNAs were purchased from Missouri S&T cDNA Resource; rM4 cDNA was provided by T. I. Bonner (National Institutes of Health, Bethesda, Md.). rM2 and rM3 were cloned from a rat brain cDNA library and sequence verified. hM1, rM2, rM3, hM4, and rM4 cDNAs were used to stably transfect CHO-K1 cells purchased from the American Type Culture Collection using Lipofectamine 2000. To make stable rM2, hM2, rM3, hM4, and rM4 cell lines for use in calcium mobilization assays, these cells also were stably transfected with a chimeric G-protein (Gqi5) (provided by B. R. Conklin, University of California, San Francisco) using Lipofectamine 2000. rM1, hM1, rM3, hM3, rM5, and hM5 cells were grown in Ham's F-12 medium containing 10% heat-inactivated fetal bovine serum (FBS), 20 mM HEPES, and 50 μg/mL G418 sulfate. rM2-Gqi5, hM2-Gqi5, and hM4-Gqi5 cells were grown in the same medium also containing 500 μg/mL Hygromycin B. Stable rM4-Gqi5 cells were grown in DMEM containing 10% heat-inactivated FBS, 20 mM HEPES, 400 μg/mL G418 sulfate, and 500 μg/mL Hygromycin B.
For high throughput measurement of agonist-evoked increases in intracellular calcium, CHO-K1 cells stably expressing muscarinic receptors were plated in growth medium lacking G418 and hygromycin at 15,000 cells/20 μL/well in Greiner 384-well black-walled, tissue culture (TC)-treated, clear-bottom plates (VWR). Cells were incubated overnight at 37° C. and 5% CO2. The next day, cells were washed using an ELX 405 (BioTek) with four washes (80 μL) of assay buffer then aspirated to 20 μL. Next, 20 μL of 16 μM Fluo-4/acetoxymethyl ester (Invitrogen, Carlsbad, Calif.) prepared as a 2.3 mM stock in DMSO and mixed in a 1:1 ratio with 10% (w/v) Pluronic F-127 and diluted in assay buffer was added to the wells and the cell plates were incubated for 50 min at 37° C. and 5% CO2. Dye was removed by washing with the ELX 405 (four 80 μL washes of assay buffer) then aspirated to 20 μL. Compound master plates were formatted in an 11 point CRC format (1:3 dilutions) in 100% DMSO with a starting concentration of 10 mM using the BRAVO liquid handler (Agilent). Test compound CRCs were then transferred to daughter plates (240 nL) using the Echo acoustic plate reformatter (Labcyte, Sunnyvale, Calif.) and then diluted into assay buffer (40 μL) to a 2× stock using a Thermo Fisher Combi (Thermo Fisher Scientific, Waltham, Mass.).
Calcium flux was measured using the Functional Drug Screening System (FDSS) 6000 (Hamamatsu Corporation, Tokyo, Japan) as an increase in the fluorescent static ratio. Compounds were applied to cells (20 μL, 2×) using the automated system of the FDSS 6000 at 4 s into the 300 s protocol and the data were collected at 1 Hz. At 144 s into the 300s protocol, 10 μL of an EC20 concentration of the muscarinic receptor agonist acetylcholine was added (5×), followed by the addition of 12 μL an EC80 concentration of acetylcholine at the 230 s time point (5×). Agonist activity was analyzed as a concentration-dependent increase in calcium mobilization upon compound addition. Emax values for agonist activity are expressed relative to the maximum for acetylcholine. Positive allosteric modulator activity was analyzed as a concentration-dependent increase in the EC20 acetylcholine response. Antagonist activity was analyzed as a concentration-dependent decrease in the EC80 acetylcholine response. Concentration-response curves were generated using a four-parameter logistical equation in XLfit curve fitting software (IDBS, Bridgewater, N.J.) for Excel (Microsoft, Redmond, Wash.) or Prism (GraphPad Software, Inc., San Diego, Calif.). […]
(A change in cytosolic calcium serves as a functional read-out for many receptors and channels.)

As usually defined, the EC50 is the midpoint of the concentration-response curve. As a reminder, the Emax is the size of the effect at its maximum, as opposed to the concentration needed. For the molecule `Cn1ccc(-c2cc(F)c(Cc3cc(C(=O)N[C@H]4CCOC[C@@H]4O)c4nccn4c3)c(F)c2)n1` [compound 38, 6-[[2,6-difluoro-4-(1-methylpyrazol-3-yl)phenyl]methyl]-N-[(3R,4S)-3-hydroxytetrahydropyran-4-yl]imidazo[1,2-a]pyridine-8-carboxamide], the concentration giving a half-maximal response (EC50) worked out at 0.507 µM and the Emax was determined as 69%.

With `Cn1ccc(-c2cc(F)c(Cc3cc(C(=O)N[C@H]4CCCC[C@@H]4O)c4nccn4c3)c(F)c2)n1` [compound 39, 6-[[2,6-difluoro-4-(1-methylpyrazol-3-yl)phenyl]methyl]-N-[(1S,2S)-2-hydroxycyclohexyl]imidazo[1,2-a]pyridine-8-carboxamide], the EC50 came out at 0.558 µM and the Emax is 58%.

In the case of `Cn1cc(-c2cc(F)c(Cc3cc(C(=O)N[C@H]4CCCC[C@@H]4O)c4nccn4c3)c(F)c2)cn1` [compound 40, 6-[[2,6-difluoro-4-(1-methylpyrazol-4-yl)phenyl]methyl]-N-[(1S,2S)-2-hydroxycyclohexyl]imidazo[1,2-a]pyridine-8-carboxamide], the EC50 came out at 0.751 µM and the maximal effect (Emax) amounted to 58%.

As to `Cn1ccc(-c2cc(F)c(Cc3cc(C(=O)N[C@H]4CCOC[C@@H]4O)c4ncnn4c3)c(F)c2)n1` [compound 41, 6-[[2,6-difluoro-4-(1-methylpyrazol-3-yl)phenyl]methyl]-N-[(3R,4S)-3-hydroxytetrahydropyran-4-yl]-[1,2,4]triazolo[1,5-a]pyridine-8-carboxamide], the concentration for a half-maximal effect (EC50) stood at 1.2 µM and the Emax stood at 76%.

As for `Cn1ccc(-c2cc(F)c(Cc3cc(C(=O)N[C@H]4CCCC[C@@H]4O)c4ncnn4c3)c(F)c2)n1` [compound 42, 6-[[2,6-difluoro-4-(1-methylpyrazol-3-yl)phenyl]methyl]-N-[(1S,2S)-2-hydroxycyclohexyl]-[1,2,4]triazolo[1,5-a]pyridine-8-carboxamide], the 50% effective concentration (EC50) was 0.936 µM and the Emax was 83%.

Consider `Cn1cc(-c2cc(F)c(Cc3cc(C(=O)N[C@H]4CCOC[C@@H]4O)c4ncnn4c3)c(F)c2)cn1` [compound 43, 6-[[2,6-difluoro-4-(1-methylpyrazol-4-yl)phenyl]methyl]-N-[(3R,4S)-3-hydroxytetrahydropyran-4-yl]-[1,2,4]triazolo[1,5-a]pyridine-8-carboxamide], for which the 50% effective concentration (EC50) was found to be 0.691 µM and the Emax is 84%.

On to `Cn1cc(-c2cc(F)c(Cc3cc(C(=O)N[C@H]4CCCC[C@@H]4O)c4ncnn4c3)c(F)c2)cn1` [compound 44, 6-[[2,6-difluoro-4-(1-methylpyrazol-4-yl)phenyl]methyl]-N-[(1S,2S)-2-hydroxycyclohexyl]-[1,2,4]triazolo[1,5-a]pyridine-8-carboxamide], for which the EC50 amounted to 0.387 µM and the maximal effect (Emax) amounted to 82%.

For `Cn1ccc(-c2ccc(Cc3cc(C(=O)N[C@H]4CCOC[C@@H]4O)c4ncnn4c3)c(F)c2)n1` [compound 45, 6-[[2-fluoro-4-(1-methylpyrazol-3-yl)phenyl]methyl]-N-[(3R,4S)-3-hydroxytetrahydropyran-4-yl]-[1,2,4]triazolo[1,5-a]pyridine-8-carboxamide], the EC50 stood at 0.693 µM and the maximal response (Emax) was 82%.

In the case of `Cn1ccc(-c2ccc(Cc3cc(C(=O)N[C@H]4CCCC[C@@H]4O)c4ncnn4c3)c(F)c2)n1` [compound 46, 6-[[2-fluoro-4-(1-methylpyrazol-3-yl)phenyl]methyl]-N-[(1S,2S)-2-hydroxycyclohexyl]-[1,2,4]triazolo[1,5-a]pyridine-8-carboxamide], the half-maximal effective concentration (EC50) stood at 0.742 µM and the maximum response (Emax) was found to be 79%.

As to `Cn1cc(-c2ccc(Cc3cc(C(=O)N[C@H]4CCOC[C@@H]4O)c4ncnn4c3)c(F)c2)cn1` [compound 47, 6-[[2-fluoro-4-(1-methylpyrazol-4-yl)phenyl]methyl]-N-[(3R,4S)-3-hydroxytetrahydropyran-4-yl]-[1,2,4]triazolo[1,5-a]pyridine-8-carboxamide], the 50% effective concentration (EC50) stood at 0.404 µM and the maximal effect (Emax) was 77%.
